Values joined by “and” are separate entries in the source; they are usually repeats but may differ in a detail not shown here. Identical values can stand only once.

Data set [1] can be described thus: Cytotoxicity. The note with it: 129S2/SvPasCrl, mouse. It counts as cell-based.
In data set [2] the target is T1, KIAA1718 Jumonji domain (residues 92–488) (Homo sapiens, UniProt Q6ZMT4).
T1 sequence (Q6ZMT4 92-488): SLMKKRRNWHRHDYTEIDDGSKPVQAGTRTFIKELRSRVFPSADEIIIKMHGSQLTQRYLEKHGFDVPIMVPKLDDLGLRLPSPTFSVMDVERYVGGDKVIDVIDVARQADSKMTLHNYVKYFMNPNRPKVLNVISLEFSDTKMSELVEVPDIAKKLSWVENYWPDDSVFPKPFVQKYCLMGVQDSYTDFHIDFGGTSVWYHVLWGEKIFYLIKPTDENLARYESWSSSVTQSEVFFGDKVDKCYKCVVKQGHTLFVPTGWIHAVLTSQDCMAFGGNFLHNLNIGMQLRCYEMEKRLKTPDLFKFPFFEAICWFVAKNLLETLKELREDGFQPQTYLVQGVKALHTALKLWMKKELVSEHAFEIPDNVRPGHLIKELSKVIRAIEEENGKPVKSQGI
As to the kind of experiment: Mass-spectrometry-based demethylation inhibition assay, KIAA1718 Jumonji domain. The format is biochemical.

Data set [3] can be described thus: Cytotoxicity. It counts as cell-based. The settings on record: human.

In the case of `COc1cc2nc(N3CCCN(C)CC3)nc(NC3CCN(Cc4ccccc4)CC3)c2cc1OC` [BIX-01294], half-maximal cytotoxicity in “Cytotoxicity [1]” (CC50 at 24 h) was put at 7.4 µM. For the same compound, in data set [2], the IC50 was 16.5 µM and ~16.5 µM; the Ki amounted to 15.3 µM. Besides, in “Cytotoxicity [3]”, the 50% cytotoxic concentration (CC50) at 24 h was determined as 3.2 µM.

Usually CC50 stands for the concentration that lowers cell viability or growth by half. What is called IC50 is the concentration that inhibits the measured activity by half. Lower therefore signals higher potency. The Ki is a measure of affinity in units of concentration, obtained from inhibition or displacement. Lower therefore signals higher affinity.

(Values after paper PMC3280428 (Journal of Molecular Biology, 2011).)
